pEC50, pIC50: −log10 of the molar value. Values after ≈ are worked out from the molar mass of the structure shown. Values joined by “and” are separate entries in the source; they are usually repeats but may differ in a detail not shown here. Equal entries are not always repeated. Where two headings read alike, the source gives them in different places.
Key:
[1] = system: Influenza A (H1N1) Texas/36/91; experiment: microbe, parasite or virus in culture; type: cell-based, influenza A virus; settings: Influenza A virus, MDCK; Influenza A (H1N1) Texas/36/91; read-out: Neutral Red EC50
Influenza B Panama/45/90 = experiment: microbe, parasite or virus in culture; type: cell-based; settings: Influenza B virus, MDCK; Influenza B Panama/45/90; read-out: CPE Inhibition EC50
Hepatitis B Virus (HBV) [2] = experiment: Inhibition of HBV replication in 2.2.15 cells, extracellular (virion) HBV DNA; settings: for EC90: 2.2.15 cells; for SI (CC50/EC90), HBV Virion: selective index;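 on all read-outs here: extracellular virion HBV DNA in culture medium measured by slot blot hybridization with a 32P-labeled HBV probe, quantified against HBV DNA standards, after 9 days of daily dosing, compared with day 0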
[3] = system: Respiratory Syncytial Virus; experiment: microbe, parasite or virus in culture; type: cell-based; settings: human respiratory syncytial virus, MA104; read-out: CPE Inhibition EC50
[4] = Cytotoxicity by neutral red dye uptake, A549 cells; settings: human
in vitro [5] = settings: dog
Hepatitis B Virus (HBV) [6] = experiment: HBV proteins and nucleic acids in 2.2.15 cells; type: cell-based; settings: Day 9, 2.2.15 cells; robustaflavone @10 μM
Method: Values of HBV proteins were determined by semi-quantitative EIA performed as previously described.^83 For the EIA analyses, test samples-were diluted (2- to 10-fold) so that the assay values produced were within the linear dynamic range of the EIA assays. Standard curves using serial dilutions of positive assay controls were included in each set of EIA analyses. HBV surface antigen ([…]), preSI protein, and HBc antigen ([…]) are released as extracellular products and were therefore analyzed in culture medium obtained 24 h following the last treatment dose of oligonucleotides or 2′, 3′-ddc. HBV core antigen (HBcAg) is an intracellular viral protein and was assayed in cell extracts produced by Triton-X-100 lysis.^83
Cultures for HBV RNA were maintained on 6-well plates, cultures for HBV virion DNA analyses were maintained on either 96- or 24-well plates, and cultures for all other HBV parameters were maintained on 24-well plates.
The concentrations of antiviral agents used in these studies approximates the EC50 values of the individual agents against intracellular HBV DNA replication intermediates (HBV RI). Cultures were treated with the indicated agents for 9 days using standard procedures. Values reported are the levels of the indicated HBV markers at the end of the treatment period (“DAY 9”) expressed as a percentage (±standard deviation (S.D.) of the average levels in the control cultures at the beginning of the treatment period (“DAY 0”). The method of expression permits an analysis of the variation of the HBV markers in the untreated (control) cultures over the course of the treatment period. HBV nucleic acid levels were measured by standard blot hydridization (dot, Southern, or Northern). HBV protein levels were measured by standard semi-quantitative EIA methods. Cultures for HBV RNA were maintained in 6-well culture plates. The levels of each of two major classes of HBV RNA transcripts are listed separately. Cultures for all other HBV markers were maintained in 24-well culture plates. For each treatment, a total of 4 separate cultures were used for the analysis of each HBV marker at both DAY 0 and DAY 9.
Determination of Mechanism of Action. Measurements of intracellular and extracellular HBV DNA, 3.6 kb and 2.1 kb mRNA fragments, and HBsAg, HBeAg and HBcAg protein markers were conducted as previously described (93).

[7] = system: Parainfluenza Type 3 Virus; experiment: organism not typed; type: cell-based; settings: MA104; Parainfluenza Type 3 Virus; read-out: CPI Inhibition EC50
[8] = Cytotoxicity by neutral red dye uptake, BSC-1 cells; settings: African green monkey
in vitro [9] = settings: human
HIV-1 RT = biological target: T1, HIV-1 RT (Human immunodeficiency virus type 1 group M subtype B, UniProt P03366); experiment: Anti-HIV-1 RT assay (recombinant enzyme); type: biochemical
T1 construct: made in house; host or cells: Escherichia coli

HSV-2 = HSV-2 CPE inhibition in HFF cells; settings: for HSV-2 SI (CC50/EC50): HFF Cells
in vitro [10] = settings: African green monkey
[11] = system: Parainfluenza Type 3 Virus; experiment: organism not typed; type: cell-based; settings: MA104, read-out: Neutral Red EC50
[12] = system: Respiratory Syncytial Virus; experiment: microbe, parasite or virus in culture; type: cell-based; settings: human respiratory syncytial virus, MA104; read-out: Neutral Red EC50
Measles Virus = experiment: Measles virus neutral red dye uptake in BSC-1 cells; type: cell-based; settings: Measles morbillivirus, BSC-1
[13] = system: Madin Darby canine kidney (MDCK) cells; settings: Influenza A (H3N2) test
[14] = range-finding, CMC vehicle, 200 mg/kg/day i.p. twice daily for 5 days
[15] = range-finding, DMSO, 75 mg/kg/day, 0.05 mL injection volume
[16] = range-finding, DMSO, 250 mg/kg/day i.p. twice daily for 5 days, 0.1 mL
[17] = robustaflavone in DMSO, 37.5 mg/kg/day i.p. bid × 5
[18] = robustaflavone in DMSO, 75 mg/kg/day i.p. bid × 5

SMILES: O=c1cc(-c2ccc(O)c(-c3c(O)cc4oc(-c5ccc(O)cc5)cc(=O)c4c3O)c2)oc2cc(O)cc(O)c12 [Robustaflavone (3), robustaflavone]
- EC50 [1]: 2 µg/mL (≈ 3.71 µM)
- EC50 (Influenza B Panama/45/90): 0.23 µg/mL (≈ 0.427 µM)
- pEC50 (Hepatitis B Virus (HBV) [2]; Hepatitis B virus, read-out: EC50, concentration necessary to decrease HBV DNA levels by 50%, 2.2.15 cells, combinations: with respect to RF): 6.60
- EC90 (Hepatitis B Virus (HBV) [2]; read-out: EC90 (90% effective dose), HBV Virion, extracellular (virion) HBV DNA, 9 days treatment): 2400 nM
- EC90 (Hepatitis B Virus (HBV) [2]; read-out: EC90 (90% effective dose), HBV Virion, extracellular (virion) HBV DNA, 9 days treatment, listed as Robustaflavone): 2200 nM
- EC90 (Hepatitis B Virus (HBV) [2]; read-out: EC90, concentration necessary to decrease HBV DNA levels by 90%, combinations: with respect to RF): 2200 nM
- SI (CC50/EC90), HBV Virion (Hepatitis B Virus (HBV) [2]): 153
- SI (CC50/EC90), HBV Virion (Hepatitis B Virus (HBV) [2]; listed as Robustaflavone): 153
- SI (CC50/EC90), HBV Virion (Hepatitis B Virus (HBV) [2]; listed as robustaflavone): 153
- EC50 [3]: > 100 µg/mL
- IC50 [4]: 102 µg/mL (≈ 189 µM)
- IC50 (in vitro [5]; CPE Inhibition IC50 (50% cell inhibitory (cytotoxic) concentration), Influenza A (H1N1) test): 18 µg/mL (≈ 33.4 µM)
- IC50 (in vitro [5]; CPE Inhibition IC50 (cytotoxic), Influenza A (H3N2) test): 32 µg/mL (≈ 59.4 µM)
- IC50 (in vitro [5]; CPE Inhibition IC50 (cytotoxic), Influenza B test): ~100 µg/mL (≈ 186 µM)
- Viral Antigens: HBeAg (Hepatitis B Virus (HBV) [6]): 86 ± 6 % of Day 0 Control
- Viral Antigens: HBsAg (Hepatitis B Virus (HBV) [6]): 97 ± 6 % of Day 0 Control
- Viral Antigens: HbcAG (Hepatitis B Virus (HBV) [6]): 138 ± 8 % of Day 0 Control
- Viral DNA: Extracellular DNA (Hepatitis B Virus (HBV) [6]): 1 ± 1 % of Day 0 Control
- Viral DNA: Intracellular DNA (Hepatitis B Virus (HBV) [6]): 5 ± 1 % of Day 0 Control
- Viral mRNA: 3.6 kb and 2.1 kb mRNA (first column) (Hepatitis B Virus (HBV) [6]): 93 ± 10 % of Day 0 Control
- EC50 [7]: > 100 µg/mL
- IC50 [8]: ~100 µg/mL (≈ 186 µM)
- IC50 (in vitro [9]): 56 µg/mL (≈ 104 µM)
- tolerability in the antiviral experiment (in words) (CMC, 200 and 100 mg/kg/day): well tolerated
- toxicity control mice killed (DMSO, 37.5 mg/kg/day): 2 of 3
- toxicity in the antiviral experiment (in words) (DMSO, 75 mg/kg/day): lethally toxic
- toxicity in the antiviral experiment (in words) (DMSO, 75 and 37.5 mg/kg/day): toxic to the mice
- Toxicity Controls Surv/Total (female, BALB/c, mouse, in vivo, ip, 200 mg/kg/day): 3/3
- Toxicity Controls Mean Weight Change (mouse, in vivo, ip, 200 mg/kg/day): 1.5 g
- Toxicity Controls Mean Weight Change (mouse, in vivo, ip, 1005 mg/kg/day): 1.9 g
- tolerability (in words) [14]: reasonably well tolerated
- weight lost in the 5-day treatment period [14]: 0.1 g
- survival (in words) [15]: all mice survived
- weight lost during the 5-day treatment period [15]: 2 g
- tolerability (in words) [16]: lethally toxic
- weight loss [16]: 6 g
- Toxicity Controls Surv/Total (robustaflavone in 0.4% CMC, 1005 mg/kg/day (so in the source) i.p. bid × 5): 4/4
- Toxicity Controls Mean Weight Change [17]: -0.8 g
- Toxicity Controls Surv/Total [17]: 1/3
- Toxicity Controls Mean Weight Change [18]: -1.7 g
- Toxicity Controls Surv/Total [18]: 0/3
- pIC50 (HIV-1 RT; Anti-HIV-1 RT IC50, values in parentheses or in words): 4.19
- pIC50 (HIV-1 RT; HIV-1 RT IC50 (50% inhibition dose)): 4.20 and 4.18
- inhibition at 200 µg/mL (HIV-1 RT; read-out: Anti-HIV-1 RT % Inhibition at 200 μg/ml): 91.4%
- HSV-2 SI (CC50/EC50) (HSV-2; listed as Robustaflavone(3)): >11.8
- HSV-2 SI (CC50/EC50) (HSV-2; listed as robustaflavone (3)): > 11.8
- EC50 (HSV-2; Human alphaherpesvirus 2, HFF, read-out: HSV-2 CPE Inhibition EC50): 8.5 µg/mL (≈ 15.8 µM)
- IC50 (in vitro [10]; CPE Inhibition IC50 (cytotoxic), Respiratory Syncytial Virus test): 56 µg/mL (≈ 104 µM)
- IC50 (in vitro [10]; CPI Inhibition IC50 (cytotoxic), Parainfluenza Type 3 Virus test): 56 µg/mL (≈ 104 µM)
- EC50 [11]: 39 µg/mL (≈ 72.4 µM)
- EC50 [12]: ~56 µg/mL (≈ 104 µM)
- EC50 (Measles Virus): < 30 µg/mL
- CPE Inhibition IC50 (cytotoxic) [13]: ˜32 ug/mL
